Results: patent US10358446B2, “Bruton's tyrosine kinase inhibitors” (Zibo Biopolar Changsheng Pharmaceutical Co. Ltd., priority 2015, dated 2019)

Molecular target: BTK (Homo sapiens (Human), UniProt Q06187)
Assay: Btk kinase assay (HTRF)
Type: biochemical
Conditions: [ATP]=80 μM, BTK=3.4 nM; read-out: BTK Inhibition
Outline: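 HTRF kinase read-out (665/615 nm ratio, excitation 330 nm) after EDTA quench and 1 h detection incubation. Reaction: 3.4 nM BTK, ATP 80 μM, peptide substrate 1 μM, compound, HEPES pH 7.0 buffer, 1 h; IC50 derived using uninhibited and enzyme-free controls.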

Chain of BTK (Q06187 whole entry, species assumed): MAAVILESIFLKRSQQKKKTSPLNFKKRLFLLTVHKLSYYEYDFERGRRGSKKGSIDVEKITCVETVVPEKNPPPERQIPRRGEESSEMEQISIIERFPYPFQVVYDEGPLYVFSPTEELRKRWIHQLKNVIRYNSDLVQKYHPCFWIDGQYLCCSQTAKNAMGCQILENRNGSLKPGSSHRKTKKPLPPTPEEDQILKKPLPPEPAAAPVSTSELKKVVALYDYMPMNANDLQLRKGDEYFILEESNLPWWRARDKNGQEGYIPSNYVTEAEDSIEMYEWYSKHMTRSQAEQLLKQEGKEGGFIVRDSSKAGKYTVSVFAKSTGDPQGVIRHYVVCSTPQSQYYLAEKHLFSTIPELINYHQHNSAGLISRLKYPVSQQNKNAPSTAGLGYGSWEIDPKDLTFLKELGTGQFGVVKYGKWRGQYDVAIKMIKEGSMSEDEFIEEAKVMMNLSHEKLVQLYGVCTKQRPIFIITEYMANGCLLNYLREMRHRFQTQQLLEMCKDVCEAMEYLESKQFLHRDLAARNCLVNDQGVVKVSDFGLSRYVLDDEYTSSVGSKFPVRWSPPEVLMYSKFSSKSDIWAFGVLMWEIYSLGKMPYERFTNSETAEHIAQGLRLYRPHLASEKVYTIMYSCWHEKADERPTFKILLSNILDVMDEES

SMILES | IC50
C=CC(=O)Nc1cccc(-n2c(=O)n(-c3ccc(Oc4ccc(F)c(F)c4)cc3)c3cnccc32)c1 [Example 126, N-(3-(3-(4-(3,4-difluorophenoxy)phenyl)-2-oxo-2,3-dihydro-1H-imidazo[4,5-c]pyridin-1-yl)phenyl)acrylamide] | 100 to 1000 nM
C=CS(=O)(=O)N1CC[C@@H](n2c(=O)n(-c3ccc(Oc4ccccc4)c(Cl)c3)c3cnccc32)C1 [Example 23, (R)-3-(3-chloro-4-phenoxyphenyl)-1-(1-(vinylsulfonyl)pyrrolidin-3-yl)-1H-imidazo[4,5-c]pyridin-2(3H)-one] | 10 to 100 nM
C=CC(=O)N1CCC[C@@H](n2c(=O)n(-c3ccc(Oc4cccc(OC)c4Cl)cc3)c3cnccc32)C1 [Example 185, (R)-1-(1-acryloylpiperidin-3-yl)-3-(4-(2-chloro-3-methoxyphenoxy)phenyl)-1H-imidazo[4,5-c]pyridin-2(3H)-one] | ≤ 10 nM
C=CC(=O)Nc1cccc(-n2c(=O)n(-c3ccc(C(=O)NCc4cccc(OC)c4)cc3)c3cnccc32)c1 [Example 252, 4-(1-(3-acrylamidophenyl)-2-oxo-1H-imidazo[4,5-c]pyridin-3(2H)-yl)-N-(3-methoxybenzyl)benzamide] | 100 to 1000 nM
C=CC(=O)N1CCC[C@@H](n2c(=O)n(-c3ccc(Oc4cccc(OC)c4F)cc3)c3cncc(OC)c32)C1 [Example 166, (R)-1-(1-acryloylpiperidin-3-yl)-3-(4-(2-fluoro-3-methoxyphenoxy)phenyl)-7-methoxy-1H-imidazo[4,5-c]pyridin-2(3H)-one] | ≤ 10 nM
C=CC(=O)Nc1cccc(-n2c(=O)n(-c3ccc(OCc4cc(F)cc(F)c4)cc3)c3cnccc32)c1 [Example 219, N-(3-(3-(4-((3,5-difluorobenzyl)oxy)phenyl)-2-oxo-2,3-dihydro-1H-imidazo[4,5-c]pyridin-1-yl)phenyl)acrylamide] | 100 to 1000 nM
C=CC(=O)N1CC[C@@H](n2c(=O)n(-c3ccc(Oc4cccc(OCC)c4)cc3)c3cnccc32)C1 [Example 24, (R)-1-(1-acryloylpyrrolidin-3-yl)-3-(4-(3-ethoxyphenoxy)phenyl)-1H-imidazo[4,5-c]pyridin-2(3H)-one] | 10 to 100 nM
C=CC(=O)N1CCC[C@@H](n2c(=O)n(-c3ccc(Oc4ccccc4)c(F)c3)c3cnccc32)C1 [Example 12, (R)-1-(1-acryloylpiperidin-3-yl)-3-(3-fluoro-4-phenoxyphenyl)-1H-imidazo[4,5-c]pyridin-2(3H)-one] | 10 to 100 nM
C=CC(=O)Nc1cccc(-n2c(=O)n(-c3ccc(Oc4ccccc4)c(C)c3)c3cnccc32)c1 [Example 27, N-(3-(3-(3-methyl-4-phenoxyphenyl)-2-oxo-2,3-dihydro-1H-imidazo [4,5-c]pyridin-1-yl)phenyl)acrylamide] | 1000 to 10000 nM
C=CC(=O)N1CCC(Cn2c(=O)n(-c3ccc(Oc4ccccc4)cc3)c3cnccc32)CC1 [Example 15, 1-((1-acryloylpiperidin-4-yl)methyl)-3-(4-phenoxyphenyl)-1H-imidazo[4,5-c]pyridin-2(3H)-one] | 100 to 1000 nM
O=C(/C=C/c1ccccc1)N1CC[C@@H](n2c(=O)n(-c3ccc(Oc4ccccc4)c(Cl)c3)c3cnccc32)C1 [Example 22, (R,E)-3-(3-chloro-4-phenoxyphenyl)-1-(1-cinnamoylpyrrolidin-3-yl)-1H-imidazo[4,5-c]pyridin-2(3H)-one] | ≥ 10000 nM
C=CC(=O)Nc1cccc(-n2c(=O)n(-c3ccc(Oc4ccccc4)cc3)c3ccncc32)c1 [Example 121, N-(3-(2-oxo-1-(4-phenoxyphenyl)-1H-imidazo[4,5-c]pyridin-3(2H)-yl)phenyl)acrylamide] | 100 to 1000 nM
C=CC(=O)N1CC[C@@H](n2c(=O)n(-c3ccc(Oc4cccc(OC)c4)c(F)c3)c3cnccc32)C1 [Example 53, (R)-1-(1-acryloylpyrrolidin-3-yl)-3-(3-fluoro-4-(3-methoxyphenoxy)phenyl)-1H-imidazo[4,5-c]pyridin-2(3H)-one] | 10 to 100 nM
C=CC(=O)N1CC[C@@H](n2c(=O)n(-c3cccc(Oc4cccc(OC5CC5)c4)c3)c3cnccc32)C1 [Example 56, (R)-1-(1-acryloylpyrrolidin-3-yl)-3-(3-(3-cyclopropoxyphenoxy)phenyl)-1H-imidazo[4,5-c]pyridin-2(3H)-one] | 10 to 100 nM
C=CC(=O)Nc1cccc(-n2c(=O)n(-c3ccc(Oc4ccc(C(F)(F)F)cc4)cc3)c3cnccc32)c1 [Example 123, N-(3-(2-oxo-3-(4-(4-(trifluoromethyl)phenoxy)phenyl)-2,3-dihydro-1H-imidazo[4,5-c]pyridin-1-yl)phenyl)acrylamide] | ≥ 10000 nM
C=CC(=O)N1CC[C@@H](n2c(=O)n(-c3ccc(Oc4cccc(F)c4OC)cc3)c3cnccc32)C1 [Example 137, (R)-1-(1-acryloylpyrrolidin-3-yl)-3-(4-(3-fluoro-2-methoxyphenoxy)phenyl)-1H-imidazo[4,5-c]pyridin-2(3H)-one] | 100 to 1000 nM
C=CC(=O)Nc1cccc(-n2c(=O)n(-c3cccc(OCc4ccccc4)c3)c3cnccc32)c1 [Example 233, N-(3-(3-(3-(benzyloxy)phenyl)-2-oxo-2,3-dihydro-1H-imidazo[4,5-c]pyridin-1-yl)phenyl)acrylamide] | 10 to 100 nM

SMILES | IC50
C=CC(=O)Nc1cccc(-n2c(=O)n(-c3ccc(OCc4c(F)cccc4F)cc3)c3cnccc32)c1 [Example 226, N-(3-(3-(4-((2,6-difluorobenzyl)oxy)phenyl)-2-oxo-2,3-dihydro-1H-imidazo[4,5-c]pyridin-1-yl)phenyl)acrylamide] | 100 to 1000 nM
C=CC(=O)Nc1cccc(-n2c(=O)n(-c3ccc(Oc4cccc(F)c4)c(F)c3)c3cnccc32)c1 [Example 90, N-(3-(3-(3-fluoro-4-(3-fluorophenoxy)phenyl)-2-oxo-2,3-dihydro-1H-imidazo[4,5-c]pyridin-1-yl)phenyl)acrylamide] | 10 to 100 nM
C=CC(=O)N1CC[C@@H](n2c(=O)n(-c3ccc(Oc4ccccn4)cc3)c3cnccc32)C1 [Example 104, (R)-1-(1-acryloylpyrrolidin-3-yl)-3-(4-(pyridin-2-yloxy)phenyl)-1,3-dihydro-2H-imidazo[4,5-c]pyridin-2-one] | 100 to 1000 nM
C=CC(=O)Nc1cccc(-n2c(=O)n(-c3ccc(C(=O)Nc4cccc(C)c4)cc3)c3cnccc32)c1 [Example 255, 4-(1-(3-acrylamidophenyl)-2-oxo-1H-imidazo[4,5-c]pyridin-3(2H)-yl)-N-(m-tolyl)benzamide] | 1000 to 10000 nM
C=CC(=O)Nc1cccc(-n2c(=O)n(-c3ccc(Oc4ccc(C(F)(F)F)cc4)c(Cl)c3)c3cnccc32)c1 [Example 111, N-(3-(3-(3-chloro-4-(4-(trifluoromethyl)phenoxy)phenyl)-2-oxo-2,3-dihydro-1H-imidazo[4,5-c]pyridin-1-yl)phenyl)acrylamide] | 1000 to 10000 nM
C=CC(=O)Nc1cccc(-n2c(=O)n(-c3ccc(OCc4ccc(F)cc4F)cc3)c3cnccc32)c1 [Example 248, N-(3-(3-(4-((2,4-difluorobenzyl)oxy)phenyl)-2-oxo-2,3-dihydro-1H-imidazo[4,5-c]pyridin-1-yl)phenyl)acrylamide] | 100 to 1000 nM
C=CC(=O)Nc1cccc(-n2c(=O)n(-c3ccc(OCc4ccc(F)cc4)cc3)c3cnccc32)c1 [Example 247, N-(3-(3-(4-((4-fluorobenzyl)oxy)phenyl)-2-oxo-2,3-dihydro-1H-imidazo[4,5-c]pyridin-1-yl)phenyl)acrylamide] | 10 to 100 nM
C=CC(=O)N1CC[C@H](n2c(=O)n(-c3ccc(Oc4ccccc4)cc3)c3/c(=N/O)[nH]cnc32)C1 [Example 177, (S,Z)-9-(1-acryloylpyrrolidin-3-yl)-6-(hydroxyimino)-7-(4-phenoxyphenyl)-7,9-dihydro-1H-purin-8(6H)-one] | 100 to 1000 nM
C=CC(=O)N1CC[C@@H](n2c(=O)n(-c3ccc(Oc4cc(F)cc(F)c4)c(Cl)c3)c3cnccc32)C1 [Example 39, (R)-1-(1-acryloylpyrrolidin-3-yl)-3-(3-chloro-4-(3,5-difluorophenoxy)phenyl)-1H-imidazo[4,5-c]pyridin-2(3H)-one] | 10 to 100 nM
C=CC(=O)N1CC[C@@H](n2c(=O)n(-c3ccc(Oc4cccc(F)c4)cc3)c3cnccc32)C1 [Example 84, (R)-1-(1-acryloylpyrrolidin-3-yl)-3-(4-(3-fluorophenoxy)phenyl)-1H-imidazo[4,5-c]pyridin-2(3H)-one] | 10 to 100 nM
C=CC(=O)Nc1cccc(-n2c(=O)n(-c3ccc(Oc4ccc(OC)c(C)c4)cc3)c3cnccc32)c1 [Example 163, N-(3-(3-(4-(4-methoxy-3-methylphenoxy)phenyl)-2-oxo-2,3-dihydro-1H-imidazo[4,5-c]pyridin-1-yl)phenyl)acrylamide] | 100 to 1000 nM
C=CC(=O)N1CC[C@@H](n2c(=O)n(-c3ccc(OCc4ccc(Cl)c(Cl)c4)cc3)c3cnccc32)C1 [Example 198, (R)-1-(1-acryloylpyrrolidin-3-yl)-3-(4-((3,4-dichlorobenzyl)oxy)phenyl)-1H-imidazo[4,5-c]pyridin-2(3H)-one] | 100 to 1000 nM
C=CC(=O)Nc1cccc(-n2c(=O)n(-c3ccc(OCc4ccccc4F)c(F)c3)c3cnccc32)c1 [Example 217, N-(3-(3-(3-fluoro-4-((2-fluorobenzyl)oxy)phenyl)-2-oxo-2,3-dihydro-1H-imidazo[4,5-c]pyridin-1-yl)phenyl)acrylamide] | 100 to 1000 nM
C=CC(=O)N1CC[C@@H](n2c(=O)n(-c3cccc(-c4ccccc4)c3)c3cnccc32)C1 [Example 277, (R)-3-([1,1′-biphenyl]-3-yl)-1-(1-acryloylpyrrolidin-3-yl)-1H-imidazo[4,5-c]pyridin-2(3H)-one] | 100 to 1000 nM
C=CC(=O)N1CC[C@@H](n2c(=O)n(-c3ccc(-c4ccc(Cl)cc4Cl)cc3)c3cnccc32)C1 [Example 275] | ≥ 10000 nM
C=CC(=O)N1CCC[C@@H](n2c(=O)n(-c3ccc(Oc4cccc(OC)c4F)cc3)c3cncc(OCC)c32)C1 [Example 167, (R)-1-(1-acryloylpiperidin-3-yl)-7-ethoxy-3-(4-(2-fluoro-3-methoxyphenoxy)phenyl)-1H-imidazo [4,5-c]pyridin-2(3H)-one] | ≤ 10 nM
